Experimental data: patent publication US9867795B2, “Nitrated lipids and methods of making and using thereof” (The UAB Research Foundation, priority 2004, dated 2018)

Target: T1, hPPARδ (Homo sapiens, UniProt Q03181)
T1 construct: For assessing full-length PPAR receptors, CV-1 cells were transiently co-transfected; expressed in transfected cells; host or cells: CV-1 cells
T1 sequence (Q03181 1-441): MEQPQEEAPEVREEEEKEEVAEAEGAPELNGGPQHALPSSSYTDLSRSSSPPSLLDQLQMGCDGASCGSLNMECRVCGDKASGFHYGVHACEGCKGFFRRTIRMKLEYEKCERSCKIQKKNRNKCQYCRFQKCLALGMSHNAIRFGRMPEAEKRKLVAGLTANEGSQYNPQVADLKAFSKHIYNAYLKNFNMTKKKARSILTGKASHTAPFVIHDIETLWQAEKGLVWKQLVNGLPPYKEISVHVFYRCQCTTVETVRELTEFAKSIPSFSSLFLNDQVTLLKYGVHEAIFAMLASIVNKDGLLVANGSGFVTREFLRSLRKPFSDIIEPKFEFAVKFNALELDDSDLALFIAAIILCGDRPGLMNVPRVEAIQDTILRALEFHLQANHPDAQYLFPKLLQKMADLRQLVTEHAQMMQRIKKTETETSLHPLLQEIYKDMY
Assay: CV-1 PPRE×3 TK-Luciferase transient transfection assay
Format: cell-based
Conditions: PPRE reporter, CV-1 cells
Procedure: Cell Transient Transfection Assay. CV-1 cells from ATCC (Manassas, Va.) were grown to ˜85% confluence in DMEM/F12 supplemented with 10% FBS, 1% penicillin-streptomycin. Then, cells were transiently co-transfected with a plasmid containing the luciferase gene under regulation by four Gal4 DNA binding elements (UASG×4 TK-Luciferase, a gift from Dr. Ronald M. Evans), in concert with plasmids containing the ligand binding domain for the different nuclear receptors fused to the Gal4 DNA binding domain. For assessing full-length PPAR receptors, CV-1 cells were transiently co-transfected with a plasmid containing the luciferase gene under the control of three tandem PPAR response elements (PPRE) (PPRE×3 TK-Luciferase) and hPPARγ, hPPARα or hPPARδ expression plasmids, respectively. In all cases, fluorescence protein (GFP) expression plasmid was co-transfected as the control for the transfection efficiency. Twenty-four hours after the transfection, cells were cultured for another 24 hours in Optium-MEM (Invitrogen, Carlsbad, Calif.). Then, cells were treated with different compounds as indicated in figures for 24 hours in Optium-MEM. […]
PPAR transient transfection assay. […] In all cases, fluorescence protein (GFP) expression plasmid was co-transfected as the control for transfection efficiency. […]

## 9- and 10-nitro-9-cis-octadecenoic acid [OA-NO2]
FIG. 17 legend
  concentration at which PPARδ activation is significantly different from vehicle: 1 µM
Text of Example 3
  concentration at which PPARδ shows significant activation: ~300 nM
